The source of these data is US20150050373A1, “HERBAL COMPOSITION FOR THE TREATMENT OF METABOLIC DISORDERS” (PIRAMAL ENTERPRISES LIMITED, priority 2012, published 2015).

Assay [1] concerns the target T1, human DGAT-1 enzyme over expressed in Sf9 cell-line (Homo sapiens, UniProt O75907).
T1 construct: hDGAT-1 ORF expression clone (RZPD0839C09146 in pDEST vector) was obtained from RZPD, Germany; made in house; host or cells: Sf9 insect cells (baculovirus, Bac-to-Bac); microsomal fraction
T1 sequence (O75907 1-488): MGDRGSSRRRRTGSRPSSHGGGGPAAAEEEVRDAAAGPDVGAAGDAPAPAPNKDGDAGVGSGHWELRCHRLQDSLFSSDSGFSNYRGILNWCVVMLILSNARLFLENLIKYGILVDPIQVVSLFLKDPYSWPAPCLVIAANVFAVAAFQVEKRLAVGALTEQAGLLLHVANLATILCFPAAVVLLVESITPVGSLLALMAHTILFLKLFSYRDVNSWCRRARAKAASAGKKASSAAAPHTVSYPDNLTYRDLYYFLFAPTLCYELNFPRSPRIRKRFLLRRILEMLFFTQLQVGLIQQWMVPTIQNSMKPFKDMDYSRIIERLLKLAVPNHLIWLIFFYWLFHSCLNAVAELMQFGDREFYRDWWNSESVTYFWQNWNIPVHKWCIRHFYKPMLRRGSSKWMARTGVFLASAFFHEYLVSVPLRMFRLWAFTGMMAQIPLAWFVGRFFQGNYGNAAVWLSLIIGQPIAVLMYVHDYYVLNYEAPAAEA
In words: hDGAT-1 assay (inhibition of [14C]triglyceride formation by microsomes). The class given is biochemical. As to the method:
The DGAT-1 assay was designed using human DGAT-1 enzyme over expressed in Sf9 cell-line as described in the reference, European Journal of Pharmacology, 650, 663-672, (2011), the disclosure of which is incorporated by reference for the teaching of the assay.
hDGAT-1 Enzyme preparation: Enzyme was diluted to a working concentration of 1 mg/mL in hDGAT-1 assay buffer, 2.5 μL of the working enzyme stock was used in hDGAT-1 assay (final concentration 25 μg/mL).
The test samples were prepared as follows. A stock solution of 20 mg/mL was prepared for each extract (Extract of Example 1 to Extract of Example 7) in 100% dimethyl sulfoxide (DMSO). The working stock was prepared in hDGAT-1 assay buffer. […]
Three different concentrations for dose response (i.e. 25 μg/mL, 50 μ/mL and 100 μg/mL) were prepared for Extract of Example 1 by serial dilution of stock solution.
60 μL of substrate mix (as described above) was added to a total assay volume of 100 μL. The reaction was started by adding 2.5 μg hDGAT-1 containing microsomal protein and was incubated at 37° C. for 10 min. The reaction was stopped by adding 300 μL of alkaline ethanol stop solution mix (AESSM). The reaction involves the incorporation of radioactive [^14C] oleoyl-CoA into the third hydroxyl group (OH) of 1,2-dioleoyl-sn-glycerol to form the radioactive triglyceride ([^14C] triglyceride) which was then extracted into the upper heptane phase. The radioactive triglyceride product thus formed was separated into the organic phase by adding 600 μL of n-heptane. 250 μL of the upper heptane was added into 4 mL of scintillation fluid and measured using a liquid scintillation counter (Packard; 1600CA) as disintegration per min (dpm) counts. The percentage inhibition was calculated with respect to the vehicle. […]

The test system of assay [2] is high fat diet (HFD) induced obesity model. The assay is described as follows: High fat diet (HFD)-induced body weight gain study in mice. The format is in vivo. Conditions: Mean ± S.E.M. The protocol:
A HFD induced body weight gain study in mice was conducted to evaluate the efficacy of the Extract of Example 1.
Male C57BL/6J mice (in-house; Central Animal Facility, Piramal Healthcare Limited, Goregaon, Mumbai, Maharashtra, India) were acclimatized with HFD (60% Kcal, D12492, Research Diets, USA) for two weeks.
A suspension of Extract of Example 1 was prepared in polyethyleneglycol 400 (30%) (PEG 400, Fisher Scientific, India) and 0.5% carboxy methylcellulose (70%) (CMC, Sigma, USA).
The Extract of Example 1 was administered at a dose of 500 mg/kg body-weight orally, once daily. Orlistat (Biocon, India) was used as the standard drug and was administered orally at a dose of 15 mg/kg body weight, twice daily. A separate group of ten mice was fed a low fat diet (LED, 10% kcal, D12450B, Research Diet, USA) as a normal control. Vehicle was administered to the HFD and LFD control groups at dose of 10 mL/kg body weight.
The treatments were continued for a period of sixty days. Body weight and feed intake were monitored daily. The % change in body weight (% increase in body weight from day 1) and the cumulative feed intake data was calculated. On day sixtyone, blood samples (˜200 μL/mice) were collected in heparinised (50 IU/mL) micro-centrifuge tubes under isoflurane anesthesia. Plasma was separated by centrifugation at 10000 rpm at 4° C. for estimation of various plasma biochemistry parameters. The biochemistry analysis was performed on BS-400 autoanalyzer (Mindray, China). Subsequently, the mice were sacrificed and following organs/tissues were dissected out and weighed viz., liver, heart, kidneys, epididymal fat and retroperitoneal fat. All the data was analyzed for statistical significance by one-way ANOVA followed by Dunnet's post-hoc test and values of P<0.05 were considered as significant. All analyses were carried out using GraphPad Prism version 4.00 for Windows (GraphPad Software, San Diego, Calif., USA).

[3] abbreviates: HFD-fed mice after 60 days treatment, Extract 500 mg/kg once daily, Orlistat 15 mg/kg twice daily, oral.
Setting [4] is: HFD-fed mice, Day 60, Extract 500 mg/kg orally once daily, Orlistat 15 mg/kg orally twice daily.

With `CC1(C)Oc2ncncc2N=C1c1ccc([C@H]2CC[C@@H](CC(=O)O)CC2)cc1` [IN5530, 2-((1s,4s)-4-(4-(7,7-dimethyl-7H-pyrimido [4,5-b][1,4]oxazin-6-yl)phenyl)cyclohexyl)acetic acid], the “% inhibition of hDGAT-1” value in assay [1] (Table 1, 20 nM) is recorded as 46.27%; in assay [1] (Table 1, 0.1 μM) it was 66.04%; in assay [1] (Table 2, 20 nM), 48.82%; in assay [1] (Table 2, 0.1 μM), 74.26%.
Regarding `CCCCCCCCCCC[C@@H](C[C@@H]1OC(=O)[C@H]1CCCCCC)OC(=O)[C@H](CC(C)C)NC=O` [Orlistat], in assay [2] (HFD-fed male C57BL/6J mice, baseline Day 0), the “Body Weight (g) (Day 0)” value is 26.4 ± 0.4 g. In addition, in assay [2] (setting [3]), the “Epididymal Fat” value is listed as 1.07 ± 0.10 g and the “Retroperitoneal Fat” value worked out at 0.42 ± 0.05 g. Besides, the “% Change in body weight” value in assay [2] (HFD-fed mice, % increase in body weight from day 1, 60 days, Extract 500 mg/kg orally once daily, Orlistat 15 mg/kg orally twice daily) came out at 16.74 ± 2.70%. Moreover, in assay [2] (setting [4]), the “Body Weight (g) (Day 60)” value was 30.9 ± 0.9 g and the “Cumulative Feed intake (g/mice) (Day 60)” value amounted to 119.7 ± 4.7 g/mice. Besides, the “Total Fat” value in assay [2] (Total fat = Epididymal fat + Retroperitoneal fat, HFD-fed mice after 60 days treatment) is reported as 1.49 ± 0.15 g.
